Data taken from publication PMC7070906, “A Near-infrared Turn-on Fluorescent Sensor for Sensitive and Specific Detection of Albumin from Urine Samples” (Sensors (Basel, Switzerland), 2020).

Target: T1, human serum albumin (HSA) (Homo sapiens, UniProt P02768)
T1 construct: gene ALB
Assay: fluorescence turn-on titration with HSA (one-site fit), Job's plot […], displacement assay
Type: binding

T1 sequence (P02768 25-609): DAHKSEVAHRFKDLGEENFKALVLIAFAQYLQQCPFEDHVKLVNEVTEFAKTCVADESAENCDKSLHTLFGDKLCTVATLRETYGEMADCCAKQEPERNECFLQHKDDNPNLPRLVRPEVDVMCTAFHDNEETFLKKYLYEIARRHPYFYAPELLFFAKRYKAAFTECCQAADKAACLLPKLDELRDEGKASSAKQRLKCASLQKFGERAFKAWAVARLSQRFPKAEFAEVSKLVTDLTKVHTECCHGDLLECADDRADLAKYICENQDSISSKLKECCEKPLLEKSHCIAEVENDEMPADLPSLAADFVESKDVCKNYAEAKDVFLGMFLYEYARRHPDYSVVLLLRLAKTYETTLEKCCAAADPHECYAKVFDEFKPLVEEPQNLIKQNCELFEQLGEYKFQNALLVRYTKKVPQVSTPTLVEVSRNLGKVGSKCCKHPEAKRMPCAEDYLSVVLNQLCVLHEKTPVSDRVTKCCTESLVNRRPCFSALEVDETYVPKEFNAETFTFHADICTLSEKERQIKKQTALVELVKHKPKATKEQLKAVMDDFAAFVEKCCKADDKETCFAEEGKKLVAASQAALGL

- Kd: 15.4 ± 3.3 µM
SMILES: CN(C)c1ccc(/C=C/C=C/C=C(\C#N)C(=O)c2cccc(Cl)c2)s1 [compound 5, (2E,4E,6E)-2-(3-chlorobenzoyl)-7-(5-(dimethylamino)thiophen-2-yl)hepta-2,4,6-trienenitrile]
